The text below walks through data of article PMC6270991, “Design and Synthesis of Thiazolo[5,4-f]quinazolines as DYRK1A Inhibitors, Part I” (Molecules, 2014).

Where two headings read alike, the source gives them in different places.

The target of test [1] is T1, CDK5/p25 (Homo sapiens, UniProt Q00535).
T1 construct: made in house
Briefly: CDK5/p25 in vitro kinase assay (33P-ATP, histone H1). The test is classed as biochemical. How it is done: (§1) Buffer A: MgCl2 (10 mM), 1 mM ethylene glycol-bis(2-aminoethylether)-N,N,N',N'-tetraacetic acid (EGTA), 1 mM dithiothreitol (DTT), 25 mM Tris-HCl pH 7.5, 50 μg heparin/mL.
(§2) Controls were performed with appropriate dilutions of dimethylsulfoxide (DMSO). IC50 values were calculated from dose-response curves established by Sigma-Plots. The GSK-3, CK1, DYRK1A and CLK1 peptide substrates were obtained from Proteogenix (Oberhausbergen, France).
(§3) CDK5/p25. (Human, recombinant) was prepared as previously described. […] ATP (3000 Ci/mmol; 10 mCi/mL) in a final volume of 30 μL. After 30 min incubation at 30 °C, 25 μL aliquots of supernatant were spotted onto sheets of Whatman P81 phosphocellulose paper, and 20 s later, the filters were washed eight times (for at least 5 min each time) in a solution of 10 mL phosphoric acid/L of water. The wet filters were counted in the presence of 1 mL ACS (Amersham) scintillation fluid.

Test [2] deals with CK1δ/ε. Briefly: CK1δ/ε in vitro kinase assay (33P-ATP, CK1-specific peptide substrate). The test is classed as biochemical, Porcine. The following applies: 15 μM ATP, 30 min at 30 °C, triplicate; <50% inhibition at 10 µM reported as >10. How it is done: as §2, §3
CK1δ/ε. (Porcine brain, native) was assayed as described for CDK5/p25, but using the CK1-specific peptide substrate […]pSAYSITA [23].

For test [3], the target named is DYRK1A (Rattus norvegicus, UniProt Q63470). Briefly: DYRK1A in vitro kinase assay (33P-ATP, Woodtide substrate). The test is classed as biochemical. How it is done:
as §1, §2, §3

Test [4] addresses GSK-3α/β. Briefly: GSK-3α/β in vitro kinase assay (33P-ATP, GS-1 peptide). The format is biochemical, Porcine. The note with it: 15 μM ATP, 30 min at 30 °C, triplicate; <50% inhibition at 10 µM reported as >10; read-out: GSK3 IC50. As to the method: as §1, §2, §3
GSK-3α/β. (Porcine brain, native) was assayed as described for CDK5/p25, but in buffer A and using a GSK-3 specific substrate (GS-1: […]pSEDEEE) (pS stands for phosphorylated serine).

Setting [5] is: 15 μM ATP, 30 min at 30 °C, triplicate, <50% inhibition at 10 µM reported as >10, read-out: CDK5 IC50.
Setting [6] is: 15 μM ATP, 30 min at 30 °C, triplicate, <50% inhibition at 10 µM reported as >10.

T1 sequence (Q00535 whole entry): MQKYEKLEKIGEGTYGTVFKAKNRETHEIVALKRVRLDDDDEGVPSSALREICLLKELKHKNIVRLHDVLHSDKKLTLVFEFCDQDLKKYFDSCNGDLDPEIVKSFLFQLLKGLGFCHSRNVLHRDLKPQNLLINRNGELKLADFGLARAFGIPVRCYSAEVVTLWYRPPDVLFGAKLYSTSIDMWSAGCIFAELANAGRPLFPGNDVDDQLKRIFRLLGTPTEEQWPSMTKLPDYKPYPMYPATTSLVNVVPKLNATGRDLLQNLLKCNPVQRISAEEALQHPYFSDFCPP
T1 sequence (Q15078 99-307 partner limits assumed): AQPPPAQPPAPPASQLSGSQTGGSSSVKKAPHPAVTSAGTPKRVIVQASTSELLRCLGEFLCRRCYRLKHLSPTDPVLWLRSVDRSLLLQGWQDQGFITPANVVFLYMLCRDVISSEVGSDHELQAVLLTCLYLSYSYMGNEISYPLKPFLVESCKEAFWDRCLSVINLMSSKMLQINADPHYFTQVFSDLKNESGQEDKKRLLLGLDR

On to `COc1ccc(Nc2ncnc3ccc4nc(C(=N)NCCN5CCCCC5)sc4c23)cc1` [Compound 7b, 9-(4-Methoxyphenylamino)-N-(2-(piperidin-1-yl)ethyl)thiazolo[5,4-f]quinazoline-2-carboximidamide], for which the IC50 is above 10 µM in test [1] (read-out: CDK5 IC50), above 10 µM in test [2], above 10 µM in test [3] and 2.5 µM in test [4].
For the compound `N=C(NCCN1CCCCC1)c1nc2ccc3ncnc(Nc4ccc(F)c(Cl)c4)c3c2s1` [Compound 10b, 9-(3-Chloro-4-fluorophenylamino)-N-(2-(piperidin-1-yl)ethyl)thiazolo[5,4-f]quinazoline-2-carboxi-midamide], the IC50 is above 10 µM in test [1] (setting [5]), above 10 µM in test [2], above 10 µM in test [3] (setting [6]) and 1.4 µM in test [4].
Turning to `CN(C)C(=N)c1nc2ccc3ncnc(Nc4ccc(Br)cc4F)c3c2s1` [Compound 9g], the IC50 in test [1] (setting [5]) was above 10 µM; in test [2], above 10 µM; in test [3] (setting [6]), 0.27 µM; in test [4], 0.6 µM.
In the case of `COc1ccc(Nc2ncnc3ccc4nc(C(=N)NCCN5CCOCC5)sc4c23)cc1` [Compound 7a, 9-(4-Methoxyphenylamino)-N-(2-morpholinoethyl)thiazolo[5,4-f]quinazoline-2-carboximidamide], the IC50 is above 10 µM in test [1] (read-out: CDK5 IC50), above 10 µM in test [2], above 10 µM in test [3] and 1.1 µM in test [4].
As to `COc1ccc(Nc2ncnc3ccc4nc(C(=N)N(C)C)sc4c23)cc1` [Compound 7g, 9-(4-Methoxyphenylamino)-N,N-dimethylthiazolo[5,4-f]quinazoline-2-carboximidamide], the IC50 in test [1] (read-out: CDK5 IC50) was above 10 µM; in test [2] it was above 10 µM; in test [3], 0.7 µM; in test [4] it was 1.1 µM.
Take `CN(C)C(=N)c1nc2ccc3ncnc(Nc4ccc(F)c(Cl)c4)c3c2s1` [Compound 10g, 9-(3-Chloro-4-fluorophenylamino)-N,N-dimethylthiazolo[5,4-f]quinazoline-2-carboximidamide]: the IC50 in test [1] (read-out: CDK5 IC50) is above 10 µM; in test [2], above 10 µM; in test [3] it was 6.5 µM; in test [4] it was 7.2 µM.
On to `N=C(NCCN1CCOCC1)c1nc2ccc3ncnc(Nc4ccc(F)c(Cl)c4)c3c2s1` [Compound 10a, 9-(3-Chloro-4-fluorophenylamino)-N-(2-morpholinoethyl)thiazolo[5,4-f]quinazoline-2-carboximid-amide], for which the IC50 in test [1] (setting [5]) is above 10 µM; in test [2], above 10 µM; in test [3] (setting [6]), above 10 µM; in test [4], 3.5 µM.
As for `N=C(NCCN1CCOCC1)c1nc2ccc3ncnc(Nc4ccc(Br)cc4F)c3c2s1` [Compound 9a, 9-(4-Bromo-2-fluorophenylamino)-N-(2-morpholinoethyl)thiazolo[5,4-f]quinazoline-2-carboximid-amide], the IC50 is above 10 µM in test [1] (setting [5]), above 10 µM in test [2], above 10 µM in test [3] (setting [6]) and 1.8 µM in test [4].
For the compound `COc1ccc(Nc2ncnc3ccc4nc(C(=N)NCCN(C)C)sc4c23)cc1` [Compound 7d, N-(2-(Dimethylamino)ethyl)-9-(4-methoxyphenylamino)thiazolo[5,4-f]quinazoline-2-carboximidamide], the IC50 in test [1] (read-out: CDK5 IC50), in test [2], in test [3] and in test [4] was above 10 µM each time.
As for `N=C(NCCN1CCCC1)c1nc2ccc3ncnc(Nc4ccc(Br)cc4F)c3c2s1` [Compound 9c, 9-(4-Bromo-2-fluorophenylamino)-N-(2-(pyrrolidin-1-yl)ethyl)thiazolo[5,4-f]quinazoline-2-carboxi-midamide], the IC50 is above 10 µM in test [1] (setting [5]), above 10 µM in test [2], above 10 µM in test [3] (setting [6]) and 2.2 µM in test [4].
Turning to `COC(=N)c1nc2ccc3ncnc(Nc4ccc(OC)cc4)c3c2s1` [Compound 7i, Methyl 9-(4-methoxyphenylamino)thiazolo[5,4-f]quinazoline-2-carbimidate], the IC50 is above 10 µM in test [1] (read-out: CDK5 IC50), above 10 µM in test [2] and 0.2 µM in test [4].
For the compound `N=C(NCCN1CCCCC1)c1nc2ccc3ncnc(Nc4ccc5c(c4)OCO5)c3c2s1` [Compound 8b, 9-(Benzo[d][1,3]dioxol-5-ylamino)-N-(2-(piperidin-1-yl)ethyl)thiazolo[5,4-f]quinazoline-2-carboximi-damide], the IC50 is above 10 µM in test [1] (setting [5]), above 10 µM in test [2], 2 µM in test [3] (setting [6]) and 1.1 µM in test [4].
For the compound `N=C(NCCN1CCCC1)c1nc2ccc3ncnc(Nc4ccc5c(c4)OCO5)c3c2s1` [Compound 8c, 9-(Benzo[d][1,3]dioxol-5-ylamino)-N-(2-(pyrrolidin-1-yl)ethyl)thiazolo[5,4-f]quinazoline-2-carboxi-midamide], the half-inhibitory concentration (IC50) in test [1] (setting [5]) is above 10 µM; in test [2] it was above 10 µM; in test [3] (setting [6]), 1.1 µM; in test [4], 0.36 µM.
As to `NC(=O)c1nc2ccc3ncnc(Nc4ccc5c(c4)OCO5)c3c2s1` [Compound 8h, 9-(Benzo[d][1,3]dioxol-5-ylamino)thiazolo[5,4-f]quinazoline-2-carboxamide], the IC50 in test [1] (read-out: CDK5 IC50) was above 10 µM; in test [2], above 10 µM; in test [3], 0.8 µM; in test [4], 0.77 µM.
Turning to `COc1ccc(Nc2ncnc3ccc4nc(C(=N)NCc5ccccc5)sc4c23)cc1` [Compound 7f, N-Benzyl-9-(4-methoxyphenylamino)thiazolo[5,4-f]quinazoline-2-carboximidamide], the IC50 was above 10 µM in test [1] (read-out: CDK5 IC50), above 10 µM in test [2], 8 µM in test [3] and 2 µM in test [4].
On to `COC(=N)c1nc2ccc3ncnc(Nc4ccc5c(c4)OCO5)c3c2s1` [Compound 8i, Methyl 9-(benzo[d][1,3]dioxol-5-ylamino)thiazolo[5,4-f]quinazoline-2-carbimidate], for which the IC50 was above 10 µM in test [1] (read-out: CDK5 IC50), above 10 µM in test [2], 0.047 µM in test [3] and 0.66 µM in test [4].
`COc1ccc(Nc2ncnc3ccc4nc(C(N)=O)sc4c23)cc1` [Compound 7h, 9-(4-Methoxyphenylamino)thiazolo[5,4-f]quinazoline-2-carboxamide]: the IC50 in test [1] was above 10 µM; in test [2], above 10 µM; in test [4], 0.3 µM.
For `COC(=N)c1nc2ccc3ncnc(Nc4ccc(F)c(Cl)c4)c3c2s1` [Compound 10i, Methyl 9-(3-chloro-4-fluorophenylamino)thiazolo[5,4-f]quinazoline-2-carbimidate], in test [1] (read-out: CDK5 IC50), the IC50 was above 10 µM.
Turning to `NC(=O)c1nc2ccc3ncnc(Nc4ccc(F)c(Cl)c4)c3c2s1` [Compound 10h, 9-(3-Chloro-4-fluorophenylamino)thiazolo[5,4-f]quinazoline-2-carboxamide], the IC50 in test [1] was above 10 µM; in test [2], above 10 µM; in test [4], 0.66 µM.
For `COC(=N)c1nc2ccc3ncnc(Nc4ccc(Br)cc4F)c3c2s1` [Compound 9i, Methyl 9-(4-bromo-2-fluorophenylamino)thiazolo[5,4-f]quinazoline-2-carbimidate], the IC50 in test [1] (read-out: CDK5 IC50) was above 10 µM; in test [2], above 10 µM; in test [4], 0.16 µM.
